The target in test [1] is T1, human D3 dopamine receptor (Homo sapiens (Human), UniProt P35462). Nature of the test: Radioligand binding (125I-IABN competition), D3. The conditions noted are these: for Ki: 125I-IABN competition, HEK cell membranes expressing human D3; for D2/D3 (D3 selectivity ratio, D2 Ki/D3 Ki): calculated D2 Ki/D3 Ki. The method, then: (§1) The affinities of the target compounds were determined using radioligand binding experiments. […] Competition curves were modeled for a single site. Data from competition dose-response curves were analyzed using Tablecurve program (Jandel). IC50 values were converted to equilibrium dissociation constants (Ki values) using the Cheng and Prusoff correction.
T1 sequence (P35462 whole entry): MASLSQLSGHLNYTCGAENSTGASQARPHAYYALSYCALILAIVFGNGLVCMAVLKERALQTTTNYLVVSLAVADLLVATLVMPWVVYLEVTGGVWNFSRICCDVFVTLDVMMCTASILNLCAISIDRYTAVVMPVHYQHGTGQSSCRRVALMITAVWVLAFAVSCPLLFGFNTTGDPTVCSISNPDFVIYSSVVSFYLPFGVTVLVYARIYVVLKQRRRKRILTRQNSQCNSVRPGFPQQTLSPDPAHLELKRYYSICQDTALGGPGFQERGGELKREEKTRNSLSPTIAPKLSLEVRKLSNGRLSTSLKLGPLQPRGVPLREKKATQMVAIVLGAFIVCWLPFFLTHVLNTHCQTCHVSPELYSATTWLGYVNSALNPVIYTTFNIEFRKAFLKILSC

Test [2] has as its target human D2-long dopamine receptor (Homo sapiens (Human), UniProt P14416). Nature of the test: Radioligand binding (125I-IABN competition), D2. Conditions: HEK cell membranes expressing human D2-long. The method, then: as §1
Test [3] concerns the target human D2 dopamine receptors (Homo sapiens (Human), UniProt P14416). Put plainly: Whole Cell Adenylyl Cyclase Assay, D2. Conditions: inhibition of forskolin (100 μM) stimulated cAMP, normalized to quinpirole; compound conc ≥10× Ki (per compound); mean ± S.E.M. The test is classed as cell-based. Here is the method:
The intrinsic activity of the compounds was evaluated by determining their ability to inhibit forskolin-dependent (100 μM) stimulation of adenylyl cyclase activity using a whole cell assay. A whole cell-cyclic AMP accumulation assay was performed with stably transfected HEK cells expressing human D2 or D3 dopamine receptors. This assay is an adaptation of an earlier published method (Su et al., Cyclic Nucleotide Res. 1976, 2, 257-285). Details regarding this method have been published (Chu, W. et al. Bioorg. Med. Chem. 2005, 13, 77-87; Taylor, M. et al. Synapse 2010, 64, 251-266). Confluent (60-80%) HEK cells transfected with recombinant D2-like dopamine receptors were grown in DMEM/10% fetal calf serum containing geneticin in […] flasks. The endogenous ATP pool is radioactively labeled by preincubating the cells in serum-free DMEM/25 mM Hepes medium containing 2 μCi/mL of [2,8-^3H]-adenine (20-Ci/mmol) in a 5% CO2 incubator at 37° C. for 75 min. The radioactive medium was removed by aspiration. Serum-free DMEM (5.6 mL) containing 25 mM HEPES, pH 7.4, and 0.1 mM of the phosphodiesterase inhibitor isobutylmethylxanthine was added to the flask. A […] aliquot of cells was removed and added to 50 μL of forskolin (100 μM) and 50 μL of test drug or quinpirole in DMEM-HEPES. The cells were incubated for 20 min at 37° C. (vortexing every 5 min). The reaction was terminated by the addition of 0.5 mL of 10% trichloroacetic acid (w/v) containing 1.0 mM unlabeled cyclic AMP as a recovery standard. Both the [^3H]-cyclic AMP and the [^3H]-ATP fractions were collected following separation using columns of Dowex AG-50W-X4 and alumina. The final yield of [^3H]-cyclic AMP is corrected for column recovery of unlabeled cyclic AMP determined spectrophotometrically (OD259). The results are reported as percent conversion of [^3H]-ATP into [^3H]-cyclic AMP. The values for the percent inhibition are reported as the actual percent of inhibition of the ^3H-cAMP accumulation relative to the assay performed in the absence of a test compound, minus basal activity. […] The percent maximum response is the value for the inhibition normalized to the value for the full agonist quinpirole.

The target in test [4] is T1, human D3 dopamine receptor. Nature of the test: Whole Cell Adenylyl Cyclase Assay, D3. Conditions: inhibition of forskolin (100 μM) stimulated cAMP, normalized to quinpirole; compound conc ≥10× Ki (per compound); mean ± S.E.M. The test is classed as cell-based.
In the next test the target is D2LR (Homo sapiens (Human), UniProt P14416). Put plainly: β-Arrestin Recruitment Assay, CHO-K1 DRD2L. The test is classed as cell-based. Conditions: antagonist vs EC80 6 nM Pergolide, CHO-K1 DRD2L cells; read-out: D2 IC50. Here is the method:
(§2) Antagonist potency of the compounds against agonist induced recruitment of β-arrestin by D3R and D2LR was measured using DiscoverRx PathHunter eXpress kits. […] After incubation at 37° C. for 90 min, the DiscoveRx detection reagent was added, the plates were incubated at room temperature for 60 min and the luminescence was measured on a Synergy 4 plate reader (BioTek). The data were plotted and the agonist EC80 values were calculated using GraphPad Prism software. For antagonist activity, the cells were plated as described above and treated with multiple concentrations (starting from 500 nM, half log dilution, 10 dose points) of the test compounds in Plating Reagent with 0.1% DMSO.
In general terms: Arrestin recruitment assays detect the binding of arrestin to an activated receptor.

Test [5] addresses T2, D3R (Homo sapiens (Human), UniProt P35462). Put plainly: β-Arrestin Recruitment Assay, U2OS DRD3. The test is classed as cell-based. Conditions: for IC50: antagonist vs EC80 8 nM PD128907, U2OS DRD3 cells, read-out: D3 IC50; for D2 IC50/D3 IC50: ratio of β-arrestin IC50 values. The method, then: as §2
The next test concerns the target human D2 receptors (Homo sapiens (Human), UniProt P14416). Put plainly: D2 Mitogenesis Functional Assay (3H-thymidine uptake, CHOp-D2 cells). The class given is cell-based.
Test [6] has as its target T2, D3R. Nature of the test: D3 Mitogenesis Functional Assay (3H-thymidine uptake, CHOp-D3 cells). The test is classed as cell-based. Put shortly: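 CHO cells expressing human D3, serum-starved 24 h, then given compound (agonist mode) or antagonist plus 30 nM quinpirole final for 16 h at 37 °C. A 2 h [3H]thymidine pulse was used for uptake.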

As usually defined, the Ki is the equilibrium dissociation constant of an inhibitor or competing ligand from its target. Higher therefore signals a looser hold on the target. What is called IC50 is the concentration needed to halve the response being measured. Broadly, the EC50 is the concentration giving half of the maximal effect. As usually defined, the Emax is the greatest response seen or fitted, relative to the assay's reference.

human D2 receptors, sequence (P14416 whole entry): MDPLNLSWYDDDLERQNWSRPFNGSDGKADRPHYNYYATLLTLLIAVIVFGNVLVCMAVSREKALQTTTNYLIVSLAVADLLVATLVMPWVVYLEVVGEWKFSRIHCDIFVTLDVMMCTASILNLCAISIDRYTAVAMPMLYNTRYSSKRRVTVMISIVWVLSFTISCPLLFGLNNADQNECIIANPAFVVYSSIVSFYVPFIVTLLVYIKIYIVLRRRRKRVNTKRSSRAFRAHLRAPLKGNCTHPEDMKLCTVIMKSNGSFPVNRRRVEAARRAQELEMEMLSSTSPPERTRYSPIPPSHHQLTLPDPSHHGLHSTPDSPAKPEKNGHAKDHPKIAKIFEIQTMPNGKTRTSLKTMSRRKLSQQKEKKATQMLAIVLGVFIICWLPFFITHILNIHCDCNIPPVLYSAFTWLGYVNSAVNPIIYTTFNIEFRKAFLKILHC
D2LR, sequence (P14416 whole entry): as above
human D2-long dopamine receptor, sequence (P14416 whole entry): as above
human D2 dopamine receptors, sequence (P14416 whole entry): as above
T2 sequence (P35462 whole entry): as the sequence (P35462 whole entry) above

Consider `CN(C)Cc1c(C(=O)NCCCCN2CCN(c3cc(C(F)(F)F)nc(C(C)(C)C)n3)CC2)nc2ccccn12` [Compound 120, N-(4-(4-(2-(tert-Butyl)-6-(trifluoromethyl)pyrimidin-4-yl)piperazin-1-yl)butyl)-3-((dimethylamino)methyl)imidazo[1,2-a]pyridine-2-carboxamide], for which the Ki is 28.8 ± 6.1 nM in test [1] and 301 nM in test [2]. In addition, the “D2/D3 (D3 selectivity ratio, D2 Ki/D3 Ki)” value in test [1] is reported as 10. Also, in test [3], the “D2 Cyclase % Inhibition Normalized” value stood at 8.9 ± 5.0%. The “D3 Cyclase % Inhibition Normalized” value in test [4] came to 47.4 ± 4.4%. The values for the IC50 on D2LR and at D3R [5] were 217 ± 10 nM and 7.2 ± 3.68 nM, respectively. Further, the “D2 IC50/D3 IC50” value on D3R [5] is 30.
As for `Cc1cc(N2CCN(CCCCNC(=O)N3CCN(c4ccccc4)CC3)CC2)nc(C(C)(C)C)n1` [Compound 5, N-(4-(4-(2-(tert-Butyl)-6-methylpyrimidin-4-yl)piperazin-1-yl)butyl)-4-phenylpiperazine-1-carboxamide], the Ki in test [1] was 2.7 ± 0.1 nM; in test [2], 366 ± 18 nM. Besides, in test [1], the “D2/D3 (D3 selectivity ratio, D2 Ki/D3 Ki)” value was 136. Further, the “D2 Cyclase % Inhibition Normalized” value in test [3] came to 54.5 ± 4.5%. Moreover, the “D3 Cyclase % Inhibition Normalized” value in test [4] is on record as 73.4 ± 11.0%. The IC50 on D2LR turned out to be 376 ± 31 nM; at D3R [5] it was 3.86 ± 2.51 nM. For the same compound, on D3R [5], the “D2 IC50/D3 IC50” value is recorded as 97.
For the compound `CC(C)(C)c1nc(N2CCN(CCCCNC(=O)N3CCN(c4ccccc4)CC3)CC2)cc(C(F)(F)F)n1` [Compound 8, N-(4-(4-(2-(tert-Butyl)-6-(trifluoromethyl)pyrimidin-4-yl)piperazin-1-yl)butyl)-4-phenylpiperazine-1-carboxamide], the Ki is 2.7 ± 0.7 nM in test [1] and 470 ± 34 nM in test [2]. In addition, the “D2/D3 (D3 selectivity ratio, D2 Ki/D3 Ki)” value in test [1] was 174. Besides, the EC50 at human D2 receptors (CHOp-D2 cells, stimulation of mitogenesis, read-out: D2 Agonist EC50) was greater than 10000 nM; on D3R [6] (CHOp-D3 cells, stimulation of mitogenesis, read-out: D3 Agonist EC50) it was greater than 10000 nM. Moreover, the Emax at 10 µM is less than 1% on human D2 receptors (at 10 μM, % maximum stimulation vs quinpirole (100%), read-out: D2 Agonist Emax) and 3% at D3R [6] (at 10 μM, % maximum stimulation vs quinpirole (100%), read-out: D3 Agonist Emax). Moreover, the “D2 Antagonist Imax” value on human D2 receptors (at 10 μM, inhibition of quinpirole stimulation of mitogenesis) was found to be 100% at 10 μM. Moreover, the IC50 on human D2 receptors (read-out: D2 Antagonist IC50) was 440 ± 160 nM; at D3R [6] (read-out: D3 Antagonist IC50) it was 125 ± 37 nM; on D2LR, greater than 500 nM; at D3R [5], 6.15 ± 0.33 nM. In addition, the “D3 Antagonist Imax” value at D3R [6] (inhibition of quinpirole stimulation of mitogenesis) was determined as 88.2%. For the same compound, the “D2 Cyclase % Inhibition Normalized” value in test [3] is listed as −4.8 ± 4.1%. Further, the “D3 Cyclase % Inhibition Normalized” value in test [4] is listed as 60.7 ± 10.7%. Moreover, the “D2 IC50/D3 IC50” value on D3R [5] is on record as greater than 81.
As for `COc1ccc2c(c1)CN(C(=O)NCCCCN1CCN(c3cc(C(F)(F)F)nc(C(C)(C)C)n3)CC1)C2` [Compound 40, N-(4-(4-(2-(tert-Butyl)-6-(trifluoromethyl)pyrimidin-4-yl)piperazin-1-yl)butyl)-5-methoxyisoindoline-2-carboxamide], in test [1], affinity was put at a Ki of 2.3 ± 0.5 nM and the “D2/D3 (D3 selectivity ratio, D2 Ki/D3 Ki)” value is on record as 432. The compound further yielded a Ki in test [2] of 994 ± 106 nM. The “D2 Cyclase % Inhibition Normalized” value in test [3] is on record as −39.1 ± 12.5%. Further, the “D3 Cyclase % Inhibition Normalized” value in test [4] came to 30.0 ± 7.9%. In addition, the half-maximal inhibitory concentration (IC50) on D2LR was determined as 157 ± 11 nM. On D3R [5], the IC50 was found to be 0.8 ± 0.24 nM and the “D2 IC50/D3 IC50” value is reported as 196.
Regarding `CC(C)(C)c1nc(N2CCN(CCCCNC(=O)N3CCc4c([nH]c5ccccc45)C3)CC2)cc(C(F)(F)F)n1` [Compound 55], the Ki in test [1] was 3 ± 0.2 nM; in test [2] it was 536 ± 118 nM. For the same compound, in test [1], the “D2/D3 (D3 selectivity ratio, D2 Ki/D3 Ki)” value is recorded as 182. In test [3], the “D2 Cyclase % Inhibition Normalized” value worked out at 6.3 ± 4.3%. Also, the “D3 Cyclase % Inhibition Normalized” value in test [4] was 61.7 ± 6.4%. Further, the IC50 at D2LR is greater than 500 nM; on D3R [5], 26.2 ± 10.2 nM. Further, at D3R [5], the “D2 IC50/D3 IC50” value is greater than 19.

The values are drawn from patent US9598387B2 (Southern Research Institute, priority 2012, dated 2017).
